Experimental data: patent US20150328109A1, “DERMAL COMPOSITIONS CONTAINING UNNATURAL HYGROSCOPIC AMINO ACIDS” (MEDPHARM LIMITED, priority 2012, published 2015)

What was measured:
[1] = In vitro permeation of Acyclovir through epidermal membrane in Franz type diffusion cells after amino acid pre-treatment; type: in vitro ADME, Human; details: maximal enhancement of the drug's permeation by amino acid pre-treatment
Experimental: (§1) Acyclovir (ACV), metronidazole and diclofenac diethylamine (DDEA) were analysed using HPLC, using of a Waters Alliance Separations Module and Waters detector. The temperature of the column and samples were maintained at 45±2° C. and 5.0±2° C., respectively. A Kinetix™ C-18 (Phenomenex, USA) column (150 mm×4.6 mm 5 μm particle size) with a guard column (Phenomenex USA, C-18 4.0×3.0 mm) was employed as the stationary phase. The mobile phase was three part; mobile phase A, water; mobile phase B, methanol; and mobile phase C, 10 mM ammonium phosphate buffer pH 2.5. The mobile phase was run using a gradient flow (Table 2) with a flow rate of 0.8 mL/min. Samples were run for 12 minutes with an injection volume of 10 μL. Acyclovir, metronidazole and DDEA were processed at a wavelength of 276 nm, with approximate retention times of 4.7, 6.5, and 8.7 min, respectively. Calibration curves were constructed from a series of standards prepared by serial dilution in conjunction with separately prepared quality controls. […] Data were recorded and analysed using Empower Pro^3 Software. […]
(§2) Three experiments were performed, one for each API (Acyclovir, metronidazole and DDEA). […] The integrity of the epidermal membrane was assessed using electrical resistance to ensure the epidermal membrane was intact. […] Samples were analysed using HPLC and the level of each API that had permeated was quantified.

[2] = cited from earlier work
[3] = In vitro permeation of diclofenac diethylamine (DDEA) through epidermal membrane in Franz type diffusion cells after amino acid pre-treatment; type: in vitro ADME, Human; details: maximal enhancement of the drug's permeation by amino acid pre-treatment
Experimental: as §1, §2

[4] = In vitro permeation of metronidazole through epidermal membrane in Franz type diffusion cells after amino acid pre-treatment; type: in vitro ADME, Human; details: maximal enhancement of the drug's permeation by amino acid pre-treatment
Experimental: as §1, §2

Row | SMILES | ER (drug absorption enhancement factor) [1] | Log P [2] | ER (drug absorption enhancement factor) [3] | ER (drug absorption enhancement factor) [4]
1 | Nc1nc2c(ncn2COCCO)c(=O)[nH]1 [ACV, Acyclovir] | 12 | – | – | –
2 | O=C(O)Cc1ccccc1Nc1c(Cl)cccc1Cl [Diclofenac diethylamine] | – | 0.85 | 19 | –
3 | Cc1ncc([N+](=O)[O-])n1CCO [Metronidazole] | – | −0.02 | – | 15
